The source of these data is the METLIN SMRT retention time set (Domingo-Almenara et al. 2019).

The nature of the data set: gradient 5% acetonitrile 3 min, to 50% in 2 min, to 85% in 15 min, held 3 min, 100 µL/min. To be noted: column: Zorbax Extend-C18 2.1 x 50 mm; eluents: water / acetonitrile, 0.1% formic acid. A digest of the protocol: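 Over 3 months, pure standards in mixtures of ~100 molecules were run by HPLC coupled to a quadrupole time-of-flight mass spectrometer in positive and negative ionization mode. The column was a Zorbax Extend-C18 (2.1 × 50 mm, 1.8 μm) at 100 μL/min, eluted with water and acetonitrile each holding 0.1% formic acid, with 40 μL dead and 900 μL dwell volumes. Retention time was determined from adduct peaks chosen by software and checked manually.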
`COc1cc(=O)n2c(c1C(=O)Nc1ccc3c(c1)OCCO3)CCCC2` had an RP-LC retention time of 647 s.

Molecule `Cn1c(C(=O)NCCc2c[nH]c3ccccc23)cc2c(-c3cccs3)nn(-c3ccccc3)c21` had an RP-LC retention time of 969 s.

Turning to `O=C(CCc1csc(NC(=O)NC2CCCCC2)n1)NCc1ccc2c(c1)OCO2`, the RP-LC retention time was 718 s.

As for `CC(NC(=O)C(=O)N1CCCCC1)C(c1cccs1)N1CCN(c2ccc(F)cc2)CC1` (configuration not stated), the RP-LC retention time is 760 s.

As for `Cc1ccc2c(c1)N(Cc1nc(-c3ccc(F)cc3)no1)C(=O)CO2`, the RP-LC retention time worked out at 1060 s.

For `Cc1ccc2nc(SCc3noc(CCC(=O)Nc4nc(-c5ccccc5)cs4)n3)[nH]c2c1`, the RP-LC retention time was 802 s.

Take `CC1CCCN(S(=O)(=O)c2ccc(-c3nnc(C4CCC4)o3)o2)C1` (configuration not stated): the RP-LC retention time is 1010 s.

Take `Cc1ccn2cc(-c3ccc(NC(=O)c4cccc(Br)c4)cc3)nc2n1`: the RP-LC retention time was 692 s.

In the case of `Cn1nc(C(=O)NCc2ccc3c(c2)OCO3)c2c1CCN(C(=O)C1CC1)C2`, the RP-LC retention time was found to be 716 s.

As to `Cc1cc(-c2ccc(S(=O)(=O)N3CCC(C(=O)N4CCCCCC4)CC3)o2)n[nH]1`, the RP-LC retention time is 772 s.

`O=C(Nc1ccc(Cl)cc1F)c1cnc(-c2ccc(F)cc2)nc1-c1ccncc1` returned an RP-LC retention time of 992 s.

For `COc1ccc(NC(=O)Cn2cccc2-c2nc(-c3ccc4c(c3)OCO4)no2)cc1OC`, the RP-LC retention time stood at 1040 s.

In turn, `Cc1nc(-c2ccccc2)nn1C1CCN(S(=O)(=O)c2ccc(Cl)s2)C1` (configuration not stated) gave an RP-LC retention time of 902 s.

The molecule `O=C(Nc1ccc(F)cc1)C(=O)c1c[nH]c2ccccc12` returned an RP-LC retention time of 918 s.

The molecule `CCCN(CCC)S(=O)(=O)c1ccc(Cl)c(OC)c1` returned an RP-LC retention time of 1030 s.

As to `O=C1CCCc2nc(Nc3nc(-c4ccccc4)c4cc(Cl)ccc4n3)ncc21`, the RP-LC retention time was 922 s.

Molecule `COc1ccc(-c2noc(CS(=O)(=O)c3ccc(C)cc3)n2)cc1OC` displayed an RP-LC retention time of 990 s.

For `CN(CC1CCOC1)C(=O)Nc1ccccc1F` (configuration not stated), the RP-LC retention time is 656 s.

As for `Cc1ccc(NC(=O)N2CCc3nc(-c4ccccc4)ncc3C2)c(Cl)c1`, the RP-LC retention time was 1080 s.

As for `Cc1csc(-n2nc(C)c(CC(=O)Nc3ccccc3F)c2C)n1`, the RP-LC retention time amounted to 938 s.

`O=C(c1ccsc1)N1CCC(N(C(=O)C2CC2)C2CCOCC2)CC1` displayed an RP-LC retention time of 662 s.

Turning to `CC(C)c1ccc(NC(=O)CN2C(=O)CC(C)(C)S(=O)(=O)c3ccccc32)cc1`, the RP-LC retention time is 898 s.

Molecule `CCc1nnc(-c2cccs2)o1` yielded an RP-LC retention time of 731 s.

For `Cc1sc2ccn(Cc3ccc(F)cc3)c(=O)c2c1C(=O)NC1CC1`, the RP-LC retention time was 759 s.

The molecule `O=C(c1c(F)cccc1Cl)N1CCc2nc(-c3ccc(Cl)cc3)ncc2C1` yielded an RP-LC retention time of 1160 s.

`Clc1ccc(Cl)c(-c2ccc(CNCc3cccs3)o2)c1` yielded an RP-LC retention time of 772 s.

On to `COc1ccc2[nH]cc(CCNC(=O)c3sc4ncccc4c3-n3cccc3)c2c1`, for which the RP-LC retention time came out at 932 s.

As for `CCCn1cnc2cc(CNC(=O)c3ccc(C(C)(C)C)cc3)ccc21`, the RP-LC retention time was 720 s.

`O=C(Cn1nc2nc(Nc3ccc(F)cc3)ccn2c1=O)NC1CCCC1` showed an RP-LC retention time of 701 s.

Molecule `Cc1nc(-c2cc3ccccc3nc2N2CCN(c3ccccc3F)CC2)no1` displayed an RP-LC retention time of 711 s.

In the case of `COc1cc(NC(=O)Cn2cccc2-c2nnc(C3CCC3)o2)cc(OC)c1`, the RP-LC retention time is 876 s.

In turn, `CCC(=O)N1CCc2ccc(C(=O)NC3CCCCC3)cc21` gave an RP-LC retention time of 800 s.

The molecule `CCn1cc(C)c(C(=O)O)c1CC(=O)NCCN1CCCc2ccccc21` had an RP-LC retention time of 711 s.

As for `COC(=O)c1c(C)[nH]c(C(=O)N2CCCC(C(=O)NCc3ccccn3)C2)c1C` (configuration not stated), the RP-LC retention time came to 577 s.

As for `O=c1cc(-c2ccncc2)nc(N2CCCC2)n1Cc1ccccc1`, the RP-LC retention time is 1200 s.

The molecule `Cc1nc(C)c(C(=O)Nc2nc(-c3ccc(Cl)cc3)c(C)s2)s1` had an RP-LC retention time of 1060 s.

Take `O=C1NCCCn2cc(S(=O)(=O)Nc3ccc(N4CCOCC4)cc3)cc21`: the RP-LC retention time amounted to 596 s.

In the case of `CCCCN1CCN(C(=O)c2c(C)sc3ccn(CC(C)C)c(=O)c23)CC1`, the RP-LC retention time was 632 s.

In the case of `Fc1ccccc1-c1noc(N2CCN(c3ccccn3)CC2)n1`, the RP-LC retention time is 649 s.

`CS(=O)(=O)N1CCC(CNC(=O)C(=O)Nc2cc(Cl)ccc2C#N)CC1` displayed an RP-LC retention time of 743 s.

Turning to `O=C(NCC1CCCCC1)c1ccc2ncnc(N3CCCC3)c2c1`, the RP-LC retention time is 675 s.

Turning to `CCOC(=O)C(=O)NCC1CN(c2ccccc2)C(=O)O1` (configuration not stated), the RP-LC retention time came out at 647 s.

Molecule `COc1ccccc1NC(=O)N1CCN(c2ccc(-c3noc(C)n3)cn2)CC1` yielded an RP-LC retention time of 724 s.

For the molecule `Cn1nc2n(c1=O)CCN(C(=O)c1ccc3c(c1)OCO3)CC2`, the RP-LC retention time was found to be 610 s.

`CC(C)c1ccc(NC(=O)C2CCN(c3cncnc3N3CCOCC3)CC2)cc1` returned an RP-LC retention time of 714 s.

`COC(=O)c1cc(OCC(=O)Nc2cc(Cl)ccc2OC)c2cc(OC)ccc2n1` came in with an RP-LC retention time of 970 s.

On to `CN(CCNC(=O)NCc1noc2ccccc12)C1CCCCC1`, for which the RP-LC retention time is 558 s.

For the molecule `COc1ccccc1CNC(=O)c1ccc2c(c1)N(C)C(=O)C1CCCCN21` (configuration not stated), the RP-LC retention time is 880 s.

With `Cc1ccc(Cn2nc3c(S(=O)(=O)N4CCCC4)cccn3c2=O)cc1`, the RP-LC retention time amounted to 880 s.

The molecule `CCOC(=O)c1ccccc1NC(=O)Cn1cccc(-c2nc(-c3ccccc3)no2)c1=O` gave an RP-LC retention time of 1030 s.

For the molecule `Cc1ccccc1NC(=O)Cn1nc2c(Oc3cccc(F)c3)nccn2c1=O`, the RP-LC retention time stood at 846 s.

As to `CCOc1ccc(CCNC(=O)C2CCCN2C(=O)OCc2ccccc2)cc1OCC` (configuration not stated), the RP-LC retention time stood at 890 s.

`CCSc1nnc(NC(=O)CSc2nnc(COc3ccccc3)o2)s1` registered an RP-LC retention time of 806 s.

As for `Cn1c(=O)c2nscc2n(CC(=O)NC2CCCCC2)c1=O`, the RP-LC retention time turned out to be 664 s.

`O=C(NC1CCCCCCC1)c1nnc(-c2ccc(S(=O)(=O)N3CCCCC3)cc2)o1` yielded an RP-LC retention time of 754 s.

`CCC(=O)N1CCc2cc(-c3ccc(C(=O)NCCN4CCN(CC)CC4)cc3)ccc21` had an RP-LC retention time of 604 s.

Regarding `CC(NC(=O)C(C)n1c2ccccc2c2cnn(C)c(=O)c21)C(=O)N1CCCCC1` (configuration not stated), the RP-LC retention time was 764 s.

`COc1ccc(NC(=O)Nc2cccn3c(C4CCC4)nnc23)cc1OC` returned an RP-LC retention time of 718 s.

The molecule `CCCn1c(=O)c(C)nc2cc(-c3noc(C4CC(=O)N(c5cccc(Cl)c5)C4)n3)ccc21` (configuration not stated) had an RP-LC retention time of 1050 s.

Regarding `COc1ccc(OCC(=O)N2CCC(C(=O)NCCc3csc(-c4ccccc4)n3)CC2)cc1`, the RP-LC retention time is 818 s.

On to `CCc1nnc(-c2ccc3ccn(CC(=O)Nc4ccc5c(c4)OCCO5)c3c2)o1`, for which the RP-LC retention time worked out at 811 s.

The molecule `O=C(NCc1ccccc1Cl)c1ccc2c(cnn2CC(=O)N2CCCCCC2)c1` yielded an RP-LC retention time of 830 s.

`Cn1c(=O)n(CC(=O)N2CCCCCC2)c(=O)c2cnc(-c3ccccc3)nc21`: the RP-LC retention time was found to be 987 s.

`NC(=O)c1cc(N2CCOCC2)nc2c(Cl)cccc12` displayed an RP-LC retention time of 720 s.

For the molecule `O=c1c(Nc2ccc(F)c(F)c2)nc2ccncc2n1Cc1ccccc1`, the RP-LC retention time was 775 s.

As for `CCn1c(C(=O)NCCC2=CCCCC2)cc2sc(Cl)cc21`, the RP-LC retention time came to 1310 s.

Molecule `CCCC(NC(=O)c1ccc(C)cc1)C(=O)Nc1nc2ccccc2[nH]1` (configuration not stated) displayed an RP-LC retention time of 716 s.

Consider `CCc1nncn1C1CCN(S(=O)(=O)c2cc(F)ccc2C)CC1`, for which the RP-LC retention time worked out at 658 s.

As to `CSc1nnc(NC(=O)c2cc(Cl)ccc2Cl)s1`, the RP-LC retention time was determined as 808 s.

`Cn1cnc([N+](=O)[O-])c1S(=O)(=O)Oc1cccc2ccccc12` gave an RP-LC retention time of 970 s.

`CCc1ccc(NC(=O)CSc2nc(N3CCCCC3)nc3ccccc23)cc1` came in with an RP-LC retention time of 809 s.

The molecule `CN(CC1CCOC1)C(=O)c1ccccc1Cl` (configuration not stated) displayed an RP-LC retention time of 681 s.

Regarding `N#Cc1ccc(C(=O)Nc2cnc(-c3ccc(Cl)cc3)nc2)cc1`, the RP-LC retention time came out at 1070 s.

Consider `CCc1ccc(N2CC(c3noc(-c4ccc5c(c4)OCO5)n3)CC2=O)cc1` (configuration not stated), for which the RP-LC retention time was 1060 s.

For the molecule `O=C(Nc1ccccc1)N1CC(c2nc(CCOCC3CC3)no2)C1`, the RP-LC retention time was determined as 792 s.

The molecule `CNC(=O)c1noc([C@@H]2CC(F)(F)CN2Cc2ccco2)n1` came in with an RP-LC retention time of 732 s.

In the case of `CCOc1ccccc1C1NC(=O)N(CC(=O)Nc2ccc(C(F)(F)F)cc2)C2=C1C(=O)OC2` (configuration not stated), the RP-LC retention time was determined as 888 s.

Regarding `Cc1ccccc1NC(=O)c1ccc(=O)n(CCN2CCCC2)c1`, the RP-LC retention time stood at 584 s.

Molecule `CC(C)c1cccc(NC(=O)c2nc(N3CCSCC3)c3cnn(C)c3n2)c1` gave an RP-LC retention time of 1040 s.

Molecule `O=C1CCCC(=O)C1CC1C(=O)CCCC1=O` had an RP-LC retention time of 836 s.

Take `CCC(=O)Nc1nc(-c2ccc3c(c2)NC(=O)C(C)O3)c(C)s1` (configuration not stated): the RP-LC retention time is 759 s.

Molecule `Cc1ccc(-c2cc(C(=O)N3CCN(C)CC3)n(C)c2)cc1` yielded an RP-LC retention time of 644 s.
